Assay results as given in ChEMBL document CHEMBL4613208, “Isatin derivatives and their anti-bacterial activities” (Eur J Med Chem, 2019).
≈ marks a conversion by molar mass, not a printed value.

How the values were obtained:
[1] = test system: Pseudomonas aeruginosa; experiment: Antibacterial activity against Pseudomonas aeruginosa after 24 hrs by paper disc diffusion technique; type: functional
[2] = test system: Staphylococcus aureus; experiment: Antibacterial activity against Staphylococcus aureus after 24 hrs by paper disc diffusion technique; type: functional
[3] = test system: Escherichia coli; experiment: Antibacterial activity against Escherichia coli after 24 hrs by paper disc diffusion technique; type: functional
[4] = test system: Klebsiella pneumoniae; experiment: Antibacterial activity against Klebsiella pneumoniae after 24 hrs by paper disc diffusion technique; type: functional
[5] = test system: Micrococcus luteus; experiment: Antibacterial activity against Micrococcus luteus after 24 hrs by paper disc diffusion technique; type: functional
[6] = test system: Staphylococcus epidermidis; experiment: Antibacterial activity against Staphylococcus epidermidis after 24 hrs by paper disc diffusion technique; type: functional
[7] = test system: Bacillus subtilis; experiment: Antibacterial activity against Bacillus subtilis by two-fold serial dilution technique; type: functional
[8] = test system: Escherichia coli; experiment: Antibacterial activity against Escherichia coli by two-fold serial dilution technique; type: functional
[9] = test system: Pseudomonas aeruginosa; experiment: Antibacterial activity against Pseudomonas aeruginosa by two-fold serial dilution technique; type: functional
[10] = test system: Staphylococcus aureus; experiment: Antibacterial activity against Staphylococcus aureus by two-fold serial dilution technique; type: functional
[11] = test system: Staphylococcus aureus; experiment: Antibacterial activity against Staphylococcus aureus ATCC 25923 after 24 hrs by agar well diffusion technique; type: functional; conditions: ATCC 25923, 24 h
[12] = test system: Escherichia coli; experiment: Antibacterial activity against Escherichia coli ATCC 25922 after 24 hrs by agar well diffusion technique; type: functional; conditions: ATCC 25922, 24 h
[13] = test system: Shigella dysenteriae; experiment: Antibacterial activity against Shigella dysenteriae after 24 hrs by agar well diffusion technique; type: functional
[14] = test system: Bacillus cereus; experiment: Antibacterial activity against Bacillus cereus after 24 hrs by agar well diffusion technique; type: functional
[15] = test system: Staphylococcus aureus; experiment: Antibacterial activity against Staphylococcus aureus; type: functional, organism-based
[16] = test system: Escherichia coli; experiment: Antibacterial activity against Escherichia coli; type: functional, organism-based
[17] = test system: Pseudomonas aeruginosa; experiment: Antibacterial activity against Pseudomonas aeruginosa; type: functional, organism-based
[18] = Pseudomonas aeruginosa, 24 h, read-out: MIC
[19] = Staphylococcus aureus, 24 h, read-out: MIC
[20] = Escherichia coli, 24 h, read-out: MIC
[21] = Klebsiella pneumoniae, 24 h, read-out: MIC
[22] = Micrococcus luteus, 24 h, read-out: MIC
[23] = Staphylococcus epidermidis, 24 h, read-out: MIC

Structure (SMILES)	MIC [1, 18] [µg/mL]	MIC [2, 19] [µg/mL]	MIC [3, 20] [µg/mL]	MIC [4, 21] [µg/mL]	MIC [5, 22] [µg/mL]	MIC [6, 23] [µg/mL]	MIC [7] [µg/mL]	MIC [8] [µg/mL]	MIC [9] [µg/mL]	MIC [10] [µg/mL]	other results
O=C(O)c1cn(C2CC2)c2cc(N3CCN(CN4C(=O)/C(=N/c5ccc(/N=C/c6ccc(O)cc6)cc5)c5cc(F)ccc54)CC3)c(F)cc2c1=O	7.81 to 125 (≈ 11.1 to 178 µM)	7.81 to 125 (≈ 11.1 to 178 µM)	7.81 to 125 (≈ 11.1 to 178 µM)	7.81 to 125 (≈ 11.1 to 178 µM)	7.81 to 125 (≈ 11.1 to 178 µM)	7.81 to 125 (≈ 11.1 to 178 µM)	–	–	–	–	MIC [1]: 7.81 to 15.62 µg/mL; MIC [2]: 7.81 to 15.62 µg/mL; MIC [3]: 7.81 to 15.62 µg/mL; MIC [4]: 7.81 to 15.62 µg/mL; MIC [5]: 7.81 to 15.62 µg/mL; MIC [6]: 7.81 to 15.62 µg/mL
Cc1ccc2c(c1)/C(=N/NC(=O)N/N=C1\C(=O)Nc3ccc(C)cc31)C(=O)N2	–	–	–	–	–	–	6.25 to 100 (≈ 16.6 to 266 µM)	6.25 to 100 (≈ 16.6 to 266 µM)	6.25 to 100 (≈ 16.6 to 266 µM)	6.25 to 100 (≈ 16.6 to 266 µM)	–
Cc1cc(NS(=O)(=O)c2ccc(/N=C3\C(=O)Nc4ccc(Cl)cc43)cc2)no1	–	–	–	–	–	–	–	–	–	–	MIC [11]: 1 to 15 µg/mL (≈ 2.4 to 36 µM); MIC [12]: 1 to 15 µg/mL (≈ 2.4 to 36 µM); MIC [13]: 1 to 15 µg/mL (≈ 2.4 to 36 µM); MIC [14]: 1 to 15 µg/mL (≈ 2.4 to 36 µM)
Cc1c(C)c2c(c(C)c1O)CCC(C)(C(=O)N/N=C1\C(=O)Nc3ccc(F)cc31)O2 (stereo not given)	–	–	–	–	–	–	–	–	–	–	MIC [15]: 12.5 to 100 µg/mL (≈ 30.4 to 243 µM); MIC [16]: 12.5 to 100 µg/mL (≈ 30.4 to 243 µM); MIC [17]: 12.5 to 100 µg/mL (≈ 30.4 to 243 µM)
Cc1c(C)c2c(c(C)c1O)CCC(C)(C(=O)N/N=C1\C(=O)Nc3ccc(Cl)cc31)O2 (stereo not given)	–	–	–	–	–	–	–	–	–	–	MIC [15]: 12.5 to 100 µg/mL (≈ 29.2 to 234 µM); MIC [16]: 12.5 to 100 µg/mL (≈ 29.2 to 234 µM); MIC [17]: 12.5 to 100 µg/mL (≈ 29.2 to 234 µM)
O=C(O)c1cn(C2CC2)c2cc(N3CCN(CN4C(=O)/C(=N/c5ccc(/N=C/c6ccccc6)cc5)c5cc(F)ccc54)CC3)c(F)cc2c1=O	7.81 to 125 (≈ 11.4 to 182 µM)	7.81 to 125 (≈ 11.4 to 182 µM)	7.81 to 125 (≈ 11.4 to 182 µM)	7.81 to 125 (≈ 11.4 to 182 µM)	7.81 to 125 (≈ 11.4 to 182 µM)	7.81 to 125 (≈ 11.4 to 182 µM)	–	–	–	–	–
O=C(N/N=C1\C(=O)Nc2ccc([N+](=O)[O-])cc21)N/N=C1\C(=O)Nc2ccc([N+](=O)[O-])cc21	–	–	–	–	–	–	6.25 to 100 (≈ 14.3 to 228 µM)	6.25 to 100 (≈ 14.3 to 228 µM)	6.25 to 100 (≈ 14.3 to 228 µM)	6.25 to 100 (≈ 14.3 to 228 µM)	–
O=C(N/N=C1\C(=O)Nc2ccc(Cl)cc21)N/N=C1\C(=O)Nc2ccc(Cl)cc21	–	–	–	–	–	–	6.25 to 100 (≈ 15 to 240 µM)	6.25 to 100 (≈ 15 to 240 µM)	6.25 to 100 (≈ 15 to 240 µM)	6.25 to 100 (≈ 15 to 240 µM)	–
CN(C)c1ccc(/C=N/c2ccc(/N=C3/C(=O)N(CN4CCN(c5cc6c(cc5F)c(=O)c(C(=O)O)cn6C5CC5)CC4)c4ccc(F)cc43)cc2)cc1	7.81 to 125 (≈ 10.7 to 171 µM)	7.81 to 125 (≈ 10.7 to 171 µM)	7.81 to 125 (≈ 10.7 to 171 µM)	7.81 to 125 (≈ 10.7 to 171 µM)	7.81 to 125 (≈ 10.7 to 171 µM)	7.81 to 125 (≈ 10.7 to 171 µM)	–	–	–	–	–
Cc1cc(NS(=O)(=O)c2ccc(N)cc2)no1 [SULFAMETHOXAZOLE]	–	–	–	–	–	–	–	–	–	–	MIC [11]: 2.5 µg/mL (≈ 9.87 µM); MIC [12]: 2.5 µg/mL (≈ 9.87 µM); MIC [13]: 2.5 µg/mL (≈ 9.87 µM); MIC [14]: 2.5 µg/mL (≈ 9.87 µM)
